Results taken from patent US8529877B2, “Benzylidene compounds comprising phosphono-groups” (BASF SE, priority 2008, dated 2013).

How the values were obtained:
Format in all cases: physicochemical
[1] = Photostability of Butyl Methoxydibenzoylmethane in O/W sunscreen film, solar simulator, HPLC; details: for Residual Butyl Methoxydibenzoylmethane: solar simulator 2 hours (5400 kJ/m2)
Procedure: The photostability of Butyl Methoxydibenzoylmethane is determined by spreading the emulsion as a 20 μm thick film on a quartz plate. The film is irradiated using a solar simulator for 2 hours (5400 kJ/m2). After irradiation, the quartz plate is plunged into 5 ml of tetrahydrofurane. The amount of UV-A filter Butyl Methoxydibenzoylmethane is then determined using high performance liquid chromatography. The residual Butyl Methoxydibenzoylmethane is determined to be 42%.
The photostability of Butyl Methoxydibenzoylmethane in the comparative formulation B is determined as described above for formulation A. The residual Butyl Methoxydibenzoylmethane is determined to be 4%.

[2] = UV shielding properties: UV spectra in ethanol (absorption maximum, A1%1cm); parameters: Absorption maximum λmax: unit not given here; details: for Absorption maximum λmax / A^1%1 cm: UV spectra in ethanol; for A^1%1 cm: at the absorption maximum; for Absorption bands (coverage of UV range): UV spectrum in ethanol
Text: The UV shielding properties of the bisbiphenyl triazine derivatives were investigated by measuring their UV spectra in ethanol. In the following table the investigated absorption maxima (λmax) together with the corresponding A^1%1cm values are listed.

[3] = Photostability of the UV filter in highly diluted ethanol solution under irradiation, analysed by UV spectroscopy; details: for Half time: first order kinetic fit, half-life under COLIPA standard sun irradiation
Procedure: The method used for assessment of photostability is based on the irradiation of a highly diluted solution of the UV-filter. The analysis after certain doses of irradiation was performed by UV-spectroscopy. The concentration of the UV-absorber in ethanol is adjusted to values between 1·10^−5 and 1·10^−6 mol/l, such that the absorbance of the solution in cuvette of 1 cm optical pathlength is equal or smaller than 0.2. The mutual protection of filter molecules can be excluded under such conditions.
Prior to irradiation of a sample the UVB-intensity at the sample position is measured with a UV-radiometer (RM-12, Dr. Gröbel Electronic GmbH). This radiometer was calibrated by comparison with a measurement of the spectral output of the metal halide lamp (including light guide and cut-off filter) using a wavelength-resolved radiometer (Gamma C11). Therefore the relationship of the reading of the RM-12 radiometer and the corresponding spectral output of the lamp is known, and one is able to determine the wavelength-resolved intensities by measuring the UVB-intensity. By changing the distance between the end of the light guide and the cuvette, the UVB-intensity can be varied in the range of 100 μW/cm^2 and 4500 μW/cm^2.
For sample irradiation the highest possible intensity was used (4.5 mW/cm^2 UVB-intensity measured with the Macam 103 radiometer). The irradiation time was varied from 0 to 180 min. The dose the sample has received after 180 minutes corresponds to 60 MED. During irradiation the sample was stirred. After certain intervals of irradiation, the samples were analysed in a UV-spectrometer (Perkin Elmer, Lambda 16).
From the absorbance values at each dose of irradiation the concentration may be calculated using Lambert-Beer's law. In order to get the half-life of the substance, a first order kinetic model was fitted to the experimental data. Since the UV-spectrum of the lamp and the UV-spectrum of the COLIPA standard sun are known, one can calculate the respective half-life of the UV-absorber under conditions of COLIPA standard sun irradiation [Bernd Herzog, Stefan Müller, Myriam Sohn, Uli Osterwalder, “New Insight and Prediction of Photostablity of Sunscreens”, SÖFW Journal 133, 26-36 (2007)].
The investigated half-time values and recovery after irradiation (10 MED) of some specific benzotropolones are listed in the table below: […]

[4] = Photostability of Ethylhexyl Methoxycinnemate in O/W sunscreen film, solar simulator, HPLC; details: for Residual Ethylhexyl Methoxycinnemate: solar simulator 4 hours (10800 kJ/m2)
Procedure: The photostability of the UV-B filter Ethylhexyl Methoxycinnemate is determined by spreading the emulsion as a 20 μm thick film on a quartz plate. The film is irradiated using a solar simulator for 4 hours (10800 kJ/m2). After irradiation, the quartz plate is plunged into 5 ml of tetrahydrofurane. The amount of UV-B filter Ethylhexyl Methoxycinnemate is then determined using high performance liquid chromatography. The residual Ethylhexyl Methoxycinnemate is determined to be 59%.
The photostability of Ethylhexyl Methoxycinnemate in the comparative formulation B is determined as described above for formulation A. The residual Ethylhexyl Methoxycinnemate is determined to be 38%.

[5] = O/W Sunscreen Formulation A (with P-01), 20 μm film on quartz plate
[6] = comparative formulation B (without P-01), 20 μm film
[7] = formulation A versus comparative formulation B

Row | SMILES | Absorption maximum λmax [2] | A^1%1 cm [2] | Absorption bands (coverage of UV range) [2] | Half time [3] | further results
1 | COc1ccc(C(=O)CC(=O)c2ccc(C(C)(C)C)cc2)cc1 [Butyl Methoxydibenzoylmethane, 1-[4-(1,1-dimethylethyl)phenyl]-3-(4-methoxyphenyl)propane-1,3-dione] | – | – | – | – | Residual Butyl Methoxydibenzoylmethane [1, 5]: 42%; Residual Butyl Methoxydibenzoylmethane [1, 6]: 4%
2 | CCOC(=O)/C(=C\c1ccc(OC)cc1)P(=O)(OCC)OCC [Compound P-1] | 303 | 519 | broad absorption bands | 14 311 h | Photodegradation after irradiation of 10 MED [3]: no photodegradation; Stabilization factor of Ethylhexyl Methoxycinnemate [4, 7]: 1.55; Stabilization factor of Butyl Methoxydibenzoylmethane [1, 7]: at least 10
3 | CCOC(=O)/C(=C\c1ccc(/C=C(\C(=O)OCC)P(=O)(OCC)OCC)cc1)P(=O)(OCC)OCC [Compound P-2] | 302 | 500 | broad absorption bands | 172 h | –
4 | CCOC(=O)/C(=C\c1ccc(N(CC)CC)cc1)P(=O)(OCC)OCC [Compound P-3] | 366 | 624 | broad absorption bands | 320 h | –
5 | CCOC(=O)/C(=C\c1cc(OC)c(O)c(OC)c1)P(=O)(OCC)OCC [Compound P-4] | 322 | 390 | broad absorption bands | 100 h | –
6 | CCOP(=O)(OCC)C(=Cc1ccc(-c2ccccc2)cc1)P(=O)(OCC)OCC [Compound P-5] | 299 | 427 | broad absorption bands | 7 h | –
7 | CCOP(=O)(OCC)C(=Cc1ccc(OC)cc1)P(=O)(OCC)OCC [Compound P-6] | 313 | 575 | broad absorption bands | 11285 h | –
8 | CCOC(=O)/C(=C\c1ccc(-c2ccccc2)cc1)P(=O)(OCC)OCC [Compound P-7] | 302 | 650 | broad absorption bands | 466.6 h | Photodegradation after irradiation of 10 MED [3]: no photodegradation
9 | CCOC(=O)/C(=C\c1ccc(NC(C)=O)cc1)P(=O)(OCC)OCC [Compound P-17] | 308 | 604 | – | 947.6 h | –
10 | CCOC(=O)/C(=C\c1ccc(-c2ccc(/C=C(\C(=O)OCC)P(=O)(OCC)OCC)cc2)cc1)P(=O)(OCC)OCC [Compound P-19] | 324 | 733 | – | 220.6 h | –
11 | CCOC(=O)C(=C1c2ccccc2-c2ccccc21)P(=O)(OCC)OCC [Compound P-20] | 314 | 371 | – | 449.2 h | –
12 | CCOC(=O)/C(=C\c1ccc(O)c(OC)c1)P(=O)(OCC)OCC [Compound P-21] | 319 | 429 | – | – | –
13 | CCOC(=O)/C(=C\c1cc(OC)c(OC)c(OC)c1)P(=O)(OCC)OCC [Compound P-22] | 299 | 357 | – | 262.8 h | –
14 | CCCCC(CC)COC(=O)C=Cc1ccc(OC)cc1 (centres unmarked) [Ethylhexyl Methoxycinnemate, 2-ethylhexyl 4-methoxycinnamate] | – | – | – | – | Residual Ethylhexyl Methoxycinnemate [4, 5]: 59%; Residual Ethylhexyl Methoxycinnemate [4, 6]: 38%
